Several values for one entry are separate records, joined by “and”; a condition that tells them apart may be missing. Equal values may be shown once. Toxic doses and inconclusive results are not listed. Rule as the data show it: active = T/C of 150% or more; inactive = T/C below 125%.
Test system: L1210 leukemia ip in BDF1 mice, survival T/C
Test: NCI In Vivo Anticancer Drug Screen. Data for tumor model L1210 Leukemia (intraperitoneal) in B6D2F1 (BDF1) mice
Details: endpoint: mean survival time, higher = longer survival
How it was run: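 Transplantable tumor model; survival measured in treated vs vehicle control mice. Value = treated/control.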

[1] = dose: 100.0 mg/kg/injection, schedule: Q04DX003 (ip), vehicle: Klucel (hydroxypropylcellulose) (HPC)
[2] = dose: 200.0 mg/kg/injection, schedule: Q04DX003 (ip), vehicle: Klucel (hydroxypropylcellulose) (HPC)
[3] = dose: 400.0 mg/kg/injection, schedule: Q04DX003 (ip), vehicle: Klucel (hydroxypropylcellulose) (HPC)
[4] = dose: 100.0 mg/kg/injection, schedule: Q01DX001 (ip), vehicle: saline
[5] = dose: 200.0 mg/kg/injection, schedule: Q01DX001 (ip), vehicle: saline
[6] = dose: 400.0 mg/kg/injection, schedule: Q01DX001 (ip), vehicle: saline
[7] = dose: 100.0 mg/kg/injection, schedule: Q01DX009 (ip), vehicle: Klucel (hydroxypropylcellulose) (HPC)
[8] = dose: 100.0 mg/kg/injection, schedule: Q04DX002 (ip), vehicle: saline
[9] = dose: 200.0 mg/kg/injection, schedule: Q01DX009 (ip), vehicle: Klucel (hydroxypropylcellulose) (HPC)
[10] = dose: 200.0 mg/kg/injection, schedule: Q04DX002 (ip), vehicle: saline
[11] = dose: 400.0 mg/kg/injection, schedule: Q04DX002 (ip), vehicle: saline
[12] = dose: 100.0 mg/kg/injection, schedule: Q01DX001 (ip), vehicle: Klucel (hydroxypropylcellulose) (HPC)
[13] = dose: 200.0 mg/kg/injection, schedule: Q01DX001 (ip), vehicle: Klucel (hydroxypropylcellulose) (HPC)
[14] = dose: 400.0 mg/kg/injection, schedule: Q01DX001 (ip), vehicle: Klucel (hydroxypropylcellulose) (HPC)
[15] = dose: 400.0 mg/kg/injection, schedule: Q01DX009 (ip), vehicle: Klucel (hydroxypropylcellulose) (HPC)
[16] = dose: 100.0 mg/kg/injection, schedule: Q01DX001 (ip), vehicle: carboxymethylcellulose (CMC)
[17] = dose: 200.0 mg/kg/injection, schedule: Q01DX001 (ip), vehicle: carboxymethylcellulose (CMC)
[18] = dose: 400.0 mg/kg/injection, schedule: Q01DX001 (ip), vehicle: carboxymethylcellulose (CMC)

Measured: T/C

CC1(C)C(C(=O)O)CC1C(=O)C(=O)O (stereo not drawn)
inactive: dose: 75.0 mg/kg/injection, schedule: Q01DX001 (ip), vehicle: carboxymethylcellulose (CMC) 96 % of control | dose: 150.0 mg/kg/injection, schedule: Q01DX001 (ip), vehicle: carboxymethylcellulose (CMC) 96 % of control | dose: 300.0 mg/kg/injection, schedule: Q01DX001 (ip), vehicle: carboxymethylcellulose (CMC) 94 % of control

CC1(C)CC(=O)CC(C)(CN)C1 (stereo not drawn)
inactive: [1] 100 % of control | [2] 104 % of control | [3] 100 % of control

CC(CCOC(=O)c1ccccc1)OC(=O)c1ccccc1 (stereo not drawn)
inactive: [4] 92 % of control | [5] 121 % of control | [6] 105 % of control

CCCCCCCCCC(=O)N(CCCC)CCCC
inactive: dose: 50.0 mg/kg/injection, schedule: Q01DX009 (ip), vehicle: Klucel (hydroxypropylcellulose) (HPC) 102 % of control | [7] 105 % of control | [8] 95 % of control | [9] 109 % of control | [10] 101 % of control | [11] 88 % of control

CCOc1cccc2c1OC(CN1CCC3(CC1)C(=O)NCN3c1ccccc1)CO2 (stereo not drawn)
inactive: [1] 116 % of control | [2] 115 % of control | [3] 115 % of control

CN(C)c1ncnc2c1nnn2C1OC(CO)C(O)C1O (stereo not drawn)
inactive: dose: 178.0 mg/kg/injection, schedule: Q01DX001 (ip), vehicle: saline 106 % of control | dose: 267.0 mg/kg/injection, schedule: Q01DX001 (ip), vehicle: saline 106 % of control | [6] 117 % of control

Nc1ccc(C(=O)O)cc1
inactive: [1] 96 % of control | [2] 106 % of control | [3] 113 % of control

O=C1CC(C(c2ccccc2)c2ccccc2)CO1 (stereo not drawn)
inactive: [12] 104 % of control | [7] 110 % of control and 89 % of control | dose: 100.0 mg/kg/injection, schedule: Q04DX002 (ip), vehicle: Klucel (hydroxypropylcellulose) (HPC) 94 % of control and 99 % of control | [1] 94 % of control | [13] 100 % of control | [9] 113 % of control and 89 % of control | dose: 200.0 mg/kg/injection, schedule: Q04DX002 (ip), vehicle: Klucel (hydroxypropylcellulose) (HPC) 94 % of control and 96 % of control | [2] 94 % of control | [14] 98 % of control | [15] 116 % of control and 89 % of control | dose: 400.0 mg/kg/injection, schedule: Q04DX002 (ip), vehicle: Klucel (hydroxypropylcellulose) (HPC) 99 % of control and 101 % of control | [3] 95 % of control

CC(=Nc1ccc(Br)cc1)c1c(O)cc(C)oc1=O
inactive: [7] 100 % of control | [9] 91 % of control | [15] 117 % of control

CCC(CC=C(C)C)(CC=C(C)C)c1ccncc1 (tested in a mixture with another compound)
inactive: [4] 97 % of control | [5] 102 % of control | [6] 97 % of control

O=C(O)C(c1ccccc1)c1ccccc1
inactive: [12] 97 % of control | [8] 97 % of control | [13] 101 % of control | [10] 97 % of control | [14] 109 % of control | [11] 87 % of control

COc1ccc(C(=O)C(C)C(C)=N)c(OCc2ccccc2)c1OC (stereo not drawn)
inactive: [16] 95 % of control | [17] 92 % of control | [18] 92 % of control

CSc1nc(N)c(N=Nc2ccc(S(=O)(=O)Nc3ccccn3)cc2)c(=O)[nH]1
inactive: [16] 92 % of control | [17] 101 % of control | [18] 95 % of control

Cn1c(O)c(N=NC(=O)Cc2c[nH]c3ccccc23)c2ccccc21
inactive: dose: 100.0 mg/kg/injection, schedule: Q01DX001 (ip), vehicle: other 101 % of control | dose: 200.0 mg/kg/injection, schedule: Q01DX001 (ip), vehicle: other 95 % of control | dose: 400.0 mg/kg/injection, schedule: Q01DX001 (ip), vehicle: other 95 % of control

OCC1OC(n2cnc3nccnc32)C(O)C1O (stereo not drawn)
inactive: dose: 100.0 mg/kg/injection, schedule: Q01DX005 (ip), vehicle: saline 98 % of control | dose: 200.0 mg/kg/injection, schedule: Q01DX005 (ip), vehicle: saline 110 % of control

O=C(Nc1ccc(Cl)cc1)Oc1ccc(Cl)cc1Cc1ccccc1
inactive: dose: 100.0 mg/kg/injection, schedule: Q04DX002 (ip), vehicle: saline with Tween-80 93 % of control | dose: 200.0 mg/kg/injection, schedule: Q04DX002 (ip), vehicle: saline with Tween-80 118 % of control | dose: 400.0 mg/kg/injection, schedule: Q04DX002 (ip), vehicle: saline with Tween-80 89 % of control

O=[N+]([O-])c1ccc(S(=O)(=O)Nc2ccc(-c3ccccc3)cc2)cc1
inactive: dose: 100.0 mg/kg/injection, schedule: Q01DX009 (ip), vehicle: other 110 % of control | dose: 100.0 mg/kg/injection, schedule: Q04DX003 (ip), vehicle: other 93 % of control | dose: 200.0 mg/kg/injection, schedule: Q01DX009 (ip), vehicle: other 98 % of control | dose: 200.0 mg/kg/injection, schedule: Q04DX003 (ip), vehicle: other 96 % of control | dose: 400.0 mg/kg/injection, schedule: Q01DX009 (ip), vehicle: other 94 % of control | dose: 400.0 mg/kg/injection, schedule: Q04DX003 (ip), vehicle: other 89 % of control
